{"source": "ChEMBL document CHEMBL5241108", "about": "(J Med Chem, 2021)", "key": {"[1]": {"assay": "Lipophilicity, logD of compound at pH 7.5 by reversed-phase HPLC analysis", "type": "physicochemical", "details": "buffer"}, "[2]": {"assay": "Stability of compound at pH 10 at 5 uM and measured upto 24 hrs by HPLC-UV analysis", "type": "physicochemical", "details": "buffer, pH 10, 24 h"}, "[3]": {"assay": "Aqueous solubility of compound at pH 6.5 and measured after 24 hrs by HPLC-MS/MS analysis", "type": "physicochemical", "details": "buffer"}, "[4]": {"assay": "Stability of compound at pH 7 at 5 uM and measured upto 24 hrs by HPLC-UV analysis", "type": "physicochemical", "details": "buffer, pH 7, 24 h"}, "[5]": {"assay": "Metabolic stability in Han Wistar rat hepatocytes assessed as intrinsic clearance at 1 uM in presence of NADP and measured upto 90 mins by LC-MS/MS analysis", "type": "ADME, cell-based, Hepatocyte", "details": "read-out: CLH (converted)"}, "[6]": {"assay": "Metabolic stability in Han Wistar rat liver microsomes assessed as maximum bioavailability at 1 uM in presence of NADP and measured upto 60 mins by LC-MS/MS analysis", "type": "ADME, Microsome", "details": "read-out: Fmax"}, "[7]": {"assay": "Metabolic stability in Han Wistar rat hepatocytes assessed as maximum bioavailability at 1 uM in presence of NADP and measured upto 90 mins by LC-MS/MS analysis", "type": "ADME, Hepatocyte", "details": "read-out: Fmax"}, "[8]": {"assay": "Metabolic stability in Han Wistar rat liver microsomes assessed as intrinsic clearance at 1 uM in presence of NADP and measured upto 60 mins by LC-MS/MS analysis", "type": "ADME, Microsome", "details": "read-out: CLH (converted)"}, "[9]": {"assay": "Metabolic stability in human liver microsomes assessed as maximum bioavailability at 1 uM in presence of NADP and measured upto 60 mins by LC-MS/MS analysis", "type": "ADME, Microsome", "details": "read-out: Fmax"}, "[10]": {"assay": "Stability of compound at pH 1 at 5 uM and measured upto 24 hrs by HPLC-UV analysis", "type": "physicochemical", "details": "buffer, pH 1, 24 h"}, "[11]": {"assay": "Acid dissociation constant, pKa of the compound", "type": "physicochemical"}}}
{"smiles": "CC[C@@H](Nc1c(C#N)c(-c2ccc(-c3ccccc3NC)cc2)nc2cnccc12)C(N)=O", "values": [{"measurement": "chromatographic logD", "setting": "[1]", "result": 2.5}]}
{"smiles": "CCOc1ccccc1-c1ccc(-c2nc3cnccc3c(N[C@H](CC)C(=O)N(C)C)c2C#N)cc1", "values": [{"measurement": "chromatographic logD", "setting": "[1]", "result": 3.7}]}
{"smiles": "CCOc1ccccc1-c1ccc(-c2nc3cnccc3c(N[C@@H]3CCNC3=O)c2C#N)cc1", "values": [{"measurement": "chromatographic logD", "setting": "[1]", "result": 2.7}]}
{"smiles": "CC[C@@H](Nc1c(C#N)c(-c2ccc(-c3ccccc3COC)cc2)nc2cnccc12)C(N)=O", "values": [{"measurement": "chromatographic logD", "setting": "[1]", "result": 2.6}]}
{"smiles": "CC[C@@H](Nc1c(C#N)c(-c2ccc(-c3ccc(F)cc3)cc2)nc2cnccc12)C(N)=O", "values": [{"measurement": "chromatographic logD", "setting": "[1]", "result": 2.7}]}
{"smiles": "CCOc1ccccc1-c1ccc(-c2nc3cnccc3c(N[C@H](CC)C(=O)NCC(F)F)c2C#N)cc1", "values": [{"measurement": "chromatographic logD", "setting": "[1]", "result": 3.6}]}
{"smiles": "CC[C@@H](Nc1c(C#N)c(-c2ccc(-c3ccccc3N(C)C)cc2)nc2cnccc12)C(N)=O", "values": [{"measurement": "chromatographic logD", "setting": "[1]", "result": 3.2}]}
{"smiles": "CCOc1ccccc1-c1ccc(-c2nc3cnccc3c(NC(C(N)=O)C3CC3)c2C#N)cc1", "note": "(racemic)", "values": [{"measurement": "chromatographic logD", "setting": "[1]", "result": 3}]}
{"smiles": "CC[C@@H](Nc1c(C#N)c(-c2ccc(-c3cccc(Cl)c3OC)cc2)nc2cnccc12)C(N)=O", "values": [{"measurement": "chromatographic logD", "setting": "[1]", "result": 3.1}]}
{"smiles": "CCOc1ccccc1-c1ccc(-c2nc3cnccc3c(N[C@H](CC)C(=O)NS(=O)(=O)C3CC3)c2C#N)cc1", "values": [{"measurement": "chromatographic logD", "setting": "[1]", "result": 2.3}]}
{"smiles": "CC[C@@H](Nc1c(C#N)c(-c2ccc(-c3ccncc3C)cc2)nc2cnccc12)C(N)=O", "values": [{"measurement": "chromatographic logD", "setting": "[1]", "result": 2}]}
{"smiles": "CC[C@@H](Nc1c(C#N)c(-c2ccc(-c3ccccc3C(F)(F)F)cc2)nc2cnccc12)C(N)=O", "values": [{"measurement": "chromatographic logD", "setting": "[1]", "result": 3.1}]}
{"smiles": "CC[C@@H](Nc1c(C#N)c(-c2ccc(-c3ccccc3C(C)C)cc2)nc2cnccc12)C(N)=O", "values": [{"measurement": "chromatographic logD", "setting": "[1]", "result": 3.5}]}
{"smiles": "CC[C@@H](Nc1c(C#N)c(-c2ccc(-c3ncccc3C)cc2)nc2cnccc12)C(N)=O", "values": [{"measurement": "chromatographic logD", "setting": "[1]", "result": 2}]}
{"smiles": "CC[C@@H](Nc1c(C#N)c(-c2ccc(-c3cccnc3C)cc2)nc2cnccc12)C(N)=O", "values": [{"measurement": "chromatographic logD", "setting": "[1]", "result": 1.9}]}
{"smiles": "CC[C@@H](Nc1c(C#N)c(-c2ccc(-c3cnccc3C)cc2)nc2cnccc12)C(N)=O", "values": [{"measurement": "chromatographic logD", "setting": "[1]", "result": 2}]}
{"smiles": "CCOc1ccccc1-c1ccc(-c2nc3cnccc3cc2C#N)cc1", "values": [{"measurement": "chromatographic logD", "setting": "[1]", "result": 3.8}]}
{"smiles": "CCOc1ccccc1-c1ccc(-c2nc3cnccc3c(N[C@H](CC(C)C)C(N)=O)c2C#N)cc1", "values": [{"measurement": "chromatographic logD", "setting": "[1]", "result": 3.4}]}
{"smiles": "CCOc1ccccc1-c1ccc(-c2nc3cnccc3c(N[C@H](CC)C(=O)NS(C)(=O)=O)c2C#N)cc1", "values": [{"measurement": "chromatographic logD", "setting": "[1]", "result": 2.2}]}
{"smiles": "CC[C@@H](Nc1c(C#N)c(-c2ccc(-c3cccc(C)c3F)cc2)nc2cnccc12)C(=O)O", "note": "[BAY-091]", "values": [{"measurement": "Stability", "setting": "[2]", "result": "Stable"}, {"measurement": "solubility at 24 h", "setting": "[3]", "result": "> 1000", "unit": "µg/mL"}, {"measurement": "chromatographic logD", "setting": "[1]", "result": 2.1}, {"measurement": "Stability", "setting": "[4]", "result": "Stable"}, {"measurement": "CLint scaled at 1 µM", "setting": "[5]", "result": 38.3, "unit": "mL/min/kg"}, {"measurement": "Fh at 1 h, 1 µM", "setting": "[6]", "result": 33, "unit": "%"}, {"measurement": "Fh at 1.5 h, 1 µM", "setting": "[7]", "result": 44, "unit": "%"}, {"measurement": "CLint scaled at 1 µM", "setting": "[8]", "result": 46.7, "unit": "mL/min/kg"}, {"measurement": "Fh at 1 h, 1 µM", "setting": "[9]", "result": 100, "unit": "%"}, {"measurement": "Stability", "setting": "[10]", "result": "Stable"}]}
{"smiles": "CC[C@@H](Nc1c(C#N)c(-c2ccc(-c3ccccc3CO)cc2)nc2cnccc12)C(N)=O", "values": [{"measurement": "chromatographic logD", "setting": "[1]", "result": 2.1}]}
{"smiles": "CCOc1ccccc1-c1ccc(-c2nc3cnccc3c(N[C@H](CC)C(=O)O)c2C#N)cc1", "values": [{"measurement": "solubility at 24 h", "setting": "[3]", "result": 112, "unit": "µg/mL"}, {"measurement": "chromatographic logD", "setting": "[1]", "result": 2.1}, {"measurement": "CLint scaled at 1 µM", "setting": "[5]", "result": 8.33, "unit": "mL/min/kg"}, {"measurement": "Fh at 1 h, 1 µM", "setting": "[6]", "result": 87, "unit": "%"}, {"measurement": "Fh at 1.5 h, 1 µM", "setting": "[7]", "result": 87, "unit": "%"}, {"measurement": "CLint scaled at 1 µM", "setting": "[8]", "result": 8.33, "unit": "mL/min/kg"}]}
{"smiles": "CC(C)(Nc1c(C#N)c(-c2ccc(Br)cc2)nc2cnccc12)C(N)=O", "values": [{"measurement": "chromatographic logD", "setting": "[1]", "result": 2.1}]}
{"smiles": "CC[C@@H](Nc1c(C#N)c(-c2ccc(-c3cccc(Cl)c3F)cc2)nc2cnccc12)C(=O)O", "values": [{"measurement": "chromatographic logD", "setting": "[1]", "result": 2.2}]}
{"smiles": "CC[C@@H](Nc1c(C#N)c(-c2ccc(-c3ccccc3C)cc2)nc2cnccc12)C(N)=O", "values": [{"measurement": "chromatographic logD", "setting": "[1]", "result": 3}]}
{"smiles": "CCCCC(Nc1c(C#N)c(-c2ccc(-c3ccccc3OCC)cc2)nc2cnccc12)C(N)=O", "note": "(racemic)", "values": [{"measurement": "chromatographic logD", "setting": "[1]", "result": 3.6}]}
{"smiles": "CCOc1ccccc1-c1ccc(-c2nc3cnccc3c(NC(COC)C(N)=O)c2C#N)cc1", "note": "(racemic)", "values": [{"measurement": "chromatographic logD", "setting": "[1]", "result": 2.8}]}
{"smiles": "CC[C@@H](Nc1c(C#N)c(-c2ccc(-c3ccccc3Cl)cc2)nc2cnccc12)C(N)=O", "values": [{"measurement": "chromatographic logD", "setting": "[1]", "result": 2.9}]}
{"smiles": "CC[C@@H](Nc1c(C#N)c(-c2ccc(-c3cccc(C)c3)cc2)nc2cnccc12)C(N)=O", "values": [{"measurement": "chromatographic logD", "setting": "[1]", "result": 3}]}
{"smiles": "CCOc1ccccc1-c1ccc(-c2nc3cnccc3c(NC(CC)CNS(=O)(=O)C3CC3)c2C#N)cc1", "note": "(racemic)", "values": [{"measurement": "chromatographic logD", "setting": "[1]", "result": 3.6}]}
{"smiles": "CC[C@@H](Nc1c(C#N)c(-c2ccc(-c3cccc(CO)c3)cc2)nc2cnccc12)C(N)=O", "values": [{"measurement": "chromatographic logD", "setting": "[1]", "result": 2}]}
{"smiles": "CC[C@@H](Nc1c(C#N)c(-c2ccc(-c3cccc(Cl)c3)cc2)nc2cnccc12)C(N)=O", "values": [{"measurement": "chromatographic logD", "setting": "[1]", "result": 3.1}]}
{"smiles": "CCOc1ccccc1-c1ccc(-c2nc3cnccc3c(N)c2C#N)cc1", "values": [{"measurement": "chromatographic logD", "setting": "[1]", "result": 3}]}
{"smiles": "CCOc1ccccc1-c1ccc(-c2nc3cnccc3c(C[C@H](C)C(N)=O)c2C#N)cc1", "values": [{"measurement": "chromatographic logD", "setting": "[1]", "result": 3}]}
{"smiles": "CC(Nc1c(C#N)c(-c2ccc(Br)cc2)nc2cnccc12)C(N)=O", "note": "(racemic)", "values": [{"measurement": "chromatographic logD", "setting": "[1]", "result": 2.1}]}
{"smiles": "CC[C@@H](Nc1c(C#N)c(-c2ccc(Br)cc2)nc2cnccc12)C(=O)O", "values": [{"measurement": "chromatographic logD", "setting": "[1]", "result": 1.6}]}
{"smiles": "CCOc1ccccc1-c1ccc(-c2nc3cnccc3c(NC(C)C(=O)O)c2C#N)cc1", "note": "(racemic)", "values": [{"measurement": "chromatographic logD", "setting": "[1]", "result": 2.1}, {"measurement": "pKa", "setting": "[11]", "result": 3.26}]}
{"smiles": "CCOc1ccccc1-c1ccc(-c2nc(NC(C)C(=O)O)c3ccncc3n2)cc1", "note": "(racemic)", "values": [{"measurement": "chromatographic logD", "setting": "[1]", "result": 2.1}]}
